According to publication PMC6823370, “A novel nucleoside rescue metabolic pathway may be responsible for therapeutic effect of orally administered cordycepin” (Scientific Reports, 2019):
Read-outs that look alike come from different tables or passages of the source.

What was measured:
[1] = system: RAW264.7 cells; assay: Repression of inflammatory gene expression in LPS-stimulated RAW264.7 cells (qPCR); format: cell-based, mouse; conditions: for effect of pre-treatment on the inhibitory effect of cordycepin on inflammatory gene expression: LPS
Method: RAW 264.7 mouse macrophage cells were cultured in DMEM supplemented with 10% FBS. Prior to experiments, cells were washed with PBS and cells were maintained in DMEM with 0.5% FBS or 10% FBS for 24 h. LPS was added at 1 µg/mL, 1 h before compound treatment, when needed. When the cells were analysed for concentration levels of cordycepin, 3′-deoxyinosine and CordyTP, the cells were washed twice with PBS. The cells were then treated with methanol and mixed vigorously before the mixture was harvested. The mixture was filtered using filter tubes mentioned above and the filtrate was analysed by liquid chromatography coupled with tandem mass spectrometry (LC-MS/MS). For determination of relative mRNA levels, RNA was isolated from the lysates using an RNA isolation kit, following manufacturer’s protocol (Promega, Madison, WI, cat no. Z6012). RNA was reverse transcribed to cDNA using SuperScript™ III reverse transcriptase (Invitrogen, Carlsbad, CA). Quantitative polymerase chain reaction (qPCR), was performed with Qiagen Rotor-Gene Q qPCR machine (Qiagen, Hilden, Germany) using Promega SYBR Green GoTaq® qPCR master mix (Promega).
Figure 3 Repression effect on inflammatory gene expression. (a) NBTI or ITu treatment prior to cordycepin treatment suppresses effect of cordycepin. RAW264.7 cells were treated with 10 µM NBTI, 100 nM ITu or DMSO (Ctrl, control) 15 min prior to cordycepin treatment. The cells were stimulated with LPS 1 h after cordycepin treatment (mean ± SD, n = 3). **p < 0.01; ***p < 0.001 compared to DMSO treatment (labelled as Ctrl). (b) 3′-deoxyinosine exerts same repression effect as cordycepin, although to a lesser degree. RAW264.7 cells were treated with 20 µM cordycepin, 20 µM 3′-deoxyinosine (3DI) or DMSO (Ctrl, control) for 1 h prior to LPS stimulation (mean ± SD, n = 3). **p < 0.01; ***p < 0.001 compared to without compound treatment (labelled as LPS).

[2] = In vivo pharmacokinetics in rats after intravenous or oral cordycepin; set-up: species or system Sprague Dawley rats; conditions: male, Sprague Dawley; for C0: in vivo, read-out: C0 of 3′-deoxyinosine; for Vd: plasma, rat, read-out: Vss of 3′-deoxyinosine
Method: Protocols for the animal experiments in this study were reviewed and approved by the University of Nottingham Ethical Review Committee in accordance with the Animals [Scientific Procedures] Act 1986. Four male Sprague Dawley rats (Charles River Laboratories, UK) of 300–350 g body weight were used. The animals were housed in the Bio Support Unit, University of Nottingham at controlled temperature, 12 h light/dark cycle and free access to food and water. The animals were allowed to acclimatise for at least six days prior to any procedures.
Prior to pharmacokinetic studies, jugular vein cannulation surgery was performed under general anaesthesia (<3% isoflurane inhalation) for blood sampling or intravenous drug administration. Following two nights of recovery from surgery, the animals were intravenously or orally administered with the PBS-based formulation (5.5 mg/mL cordycepin) developed in a previously reported study. The dose was 8 or 20 mg/kg for intravenous administration and 8 or 80 mg/kg for oral administration. […] When whole blood was analysed, an aliquot was withdrawn immediately after mixing with the pretreated pentostatin. Otherwise, the mixture was centrifuged (3000 g, 10 min) to obtain plasma and samples were stored within the storage conditions tested prior to analysis.
(§1) Samples from Caco-2 permeability, in vitro determination of CordyTP formation and in vivo experiments were subjected to protein precipitation followed by LC-MS/MS analysis. To 50 µL of rat plasma sample, 150 µL of internal standard solution (1.67 µg/mL 2-chloroadenosine in methanol) was added. The samples were then vortex-mixed for 10 s and were centrifuged for 3 min at 17949 g. Supernatant (20 µL) was collected and diluted 10-fold with DDW before injection into the LC-MS/MS for analysis of cordycepin and 3′-deoxyinosine. For analysis of CordyTP, the supernatant was filtered using filter tubes mentioned above and injected without dilution. Tissue samples were homogenised using Bullet Blender Gold (Next Advance, Inc., Troy, NY) in methanol (1:3 w/v) and centrifuged for 3 min at 17949 g. The supernatant was filtered and injected for analysis of CordyTP or diluted 10-fold with DDW for analysis of cordycepin and 3′-deoxyinosine. The LC-MS/MS system was a API4000 QTrap (AB Sciex, Warrington, UK) equipped with HPLC setup of SCL10Avp controller, LC10ADvp pump and SILHTC autosampler (Shimadzu, Milton Keynes, UK). Three different methods were utilised for each compound and multiple reaction monitoring parameters of the MS/MS conditions are shown in Table 1. The HPLC conditions including stationary phases and specific mass spectrometry parameters are shown in Supplementary Information 2. The LC-MS/MS method for cordycepin was fully validated in terms of accuracy, precision, sensitivity, selectivity, linearity and sample storage stability in accordance with the Guidance for Industry, Bioanalytical Method Validation, (2018) published by the US FDA (refer to Supplementary Information 3 for validation procedures and results)[53].
Data are presented as mean ± standard deviation (SD). A two-tailed unpaired t-test was applied for assessment of statistical significance of differences between two groups. For three or more groups, the statistical significance was assessed by application of a one-way ANOVA followed by Tukey’s multiple comparisons test. A p-value lower than 0.05 was deemed statistically significant. Statistical analyses were conducted using GraphPad Prism version 7.01 (GraphPad Software, Inc., La Jolla, CA, USA). Pharmacokinetic parameters were obtained by non-compartmental analysis using Phoenix WinNonlin 6.3 software (Pharsight, Mountain View, CA, USA).
For calculation of pharmacokinetic parameters, the plasma concentration-time curve was plotted in a semi-log scale. From the plot, the elimination rate constant (ke) was calculated. Elimination half-life (t1/2) wasthen calculated using the following equation: […]

[3] = Caco-2 permeability; format: in vitro ADME; conditions: human, Caco-2; read-out: Papp of 3′-deoxyinosine, A to B
Method: (§2) Caco-2 permeability assays were conducted following previously reported methods with 21-day maintenance on the Corning 24-well Transwell® (Fisher Scientific, Loughborough, UK)[48]. […] Both directions of apical-to-basolateral and basolateral-to-apical were tested. […] The experiments were conducted in triplicates.
as §1

[4] = system: Caco-2 cells; assay: Caco-2 permeability; format: in vitro ADME; conditions: cells treated with cordycepin in the absence of pentostatin
Method: as §2, §1

Question: With `OC[C@@H]1C[C@@H](O)[C@H](n2cnc3c(O)ncnc32)O1` [3′-deoxyinosine] as the molecule, how does the “effect on expression of inflammatory genes” value ([1]; 20 µM, 1 h prior to LPS stimulation) read?
Answer: suppressed expression of inflammatory genes

Question: And the C0 ([2]; rat plasma, intravenous cordycepin 8 mg/kg)?
Answer: 5730 ± 1630 ng/mL

Question: What about the C0 ([2]; rat plasma, intravenous cordycepin 20 mg/kg) of the same molecule?
Answer: 16300 ± 3870 ng/mL

Question: What about the Vd ([2]; intravenous cordycepin 8 mg/kg) of the same molecule?
Answer: 2.8 ± 0.3 L/kg

Question: And the Vd ([2]; intravenous cordycepin 20 mg/kg)?
Answer: 3 ± 0.7 L/kg

Question: What about the Cmax ([2]; rat plasma, oral cordycepin 8 mg/kg, read-out: Cmax of 3′-deoxyinosine) of the same molecule?
Answer: 202 ± 98 ng/mL

Question: And the Papp A→B at 120 min, 200 µM [3]?
Answer: ~0.2 ×10⁻⁶ cm/s

Question: What about the “permeation of 3′-deoxyinosine” value [4] of the same molecule?
Answer: detected

Question: For `O=[N+]([O-])c1ccc(CSc2ncnc3c2ncn3[C@@H]2O[C@H](CO)[C@@H](O)[C@H]2O)cc1` [NBTI, S-(4-nitrobenzyl)-6-thioinosine, reference compound], which “effect of pre-treatment on the inhibitory effect of cordycepin on inflammatory gene expression” value ([1]; 10 µM NBTI 15 min prior to cordycepin) is on record?
Answer: inhibit the inhibitory effect of cordycepin

Question: For `Nc1ncnc2c1c(I)cn2[C@@H]1O[C@H](CO)[C@@H](O)[C@H]1O` [ITu, 5-iodotubericidin, reference compound], which “effect of pre-treatment on the inhibitory effect of cordycepin on inflammatory gene expression” value ([1]; 100 nM ITu 15 min prior to cordycepin) is on record?
Answer: inhibit the inhibitory effect of cordycepin
